Data as given in PubChem BioAssay AID200 (DTP/NCI, 2004).
Where “and” joins values, the source holds several entries; their conditions need not be identical. Equal values may be shown once. Inconclusive results and toxic doses are left out.

Test system: B6C3F1 mice, B16 melanoma ip, median survival T/C
Test: NCI In Vivo Anticancer Drug Screen. Data for tumor model B16 Melanoma (intraperitoneal) in B6C3F1 mice
Conditions: endpoint: median survival time, higher = longer survival
Outline: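 Tumor-bearing mice received test compound; a separate group got vehicle only. Survival was then compared, with results reported as treated over control.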

[1] = dose: 12.5 mg/kg/injection, schedule: Q01DX009 (ip), vehicle: Klucel (hydroxypropylcellulose) (HPC)
[2] = dose: 25.0 mg/kg/injection, schedule: Q01DX009 (ip), vehicle: Klucel (hydroxypropylcellulose) (HPC)
[3] = dose: 50.0 mg/kg/injection, schedule: Q01DX009 (ip), vehicle: Klucel (hydroxypropylcellulose) (HPC)
[4] = dose: 1.56 mg/kg/injection, schedule: Q01DX009 (ip), vehicle: saline with Tween-80
[5] = dose: 25.0 mg/kg/injection, schedule: Q01DX009 (ip), vehicle: saline with Tween-80
[6] = dose: 50.0 mg/kg/injection, schedule: Q01DX009 (ip), vehicle: saline with Tween-80
[7] = dose: 100.0 mg/kg/injection, schedule: Q01DX009 (ip), vehicle: saline with Tween-80
[8] = dose: 200.0 mg/kg/injection, schedule: Q01DX009 (ip), vehicle: saline with Tween-80
[9] = dose: 100.0 mg/kg/injection, schedule: Q01DX009 (ip), vehicle: Klucel (hydroxypropylcellulose) (HPC)
[10] = dose: 200.0 mg/kg/injection, schedule: Q01DX009 (ip), vehicle: Klucel (hydroxypropylcellulose) (HPC)
[11] = dose: 400.0 mg/kg/injection, schedule: Q01DX009 (ip), vehicle: Klucel (hydroxypropylcellulose) (HPC)
[12] = dose: 12.5 mg/kg/injection, schedule: Q01DX009 (ip), vehicle: saline with Tween-80

## CC(=O)OC(OC(C)=O)c1ccc([N+](=O)[O-])c([N+](=O)[O-])c1
[1]
  T/C: 102 % of control
[2]
  T/C: 99 % of control
[3]
  T/C: 102 % of control

## CC1(C)N=C(N)N=C(N)N1c1ccc(CCCCc2ccc(S(=O)(=O)F)cc2Cl)c(Cl)c1
dose: 1.56 mg/kg/injection, schedule: Q01DX009 (ip), vehicle: other
  T/C: 100 % of control
[4]
  T/C: 122 % of control
dose: 3.12 mg/kg/injection, schedule: Q01DX009 (ip), vehicle: other
  T/C: 104 % of control
dose: 6.25 mg/kg/injection, schedule: Q01DX009 (ip), vehicle: other
  T/C: 109 % of control
dose: 12.5 mg/kg/injection, schedule: Q01DX009 (ip), vehicle: other
  T/C: 102 % of control
[5]
  T/C: 156 % of control

## Nc1nc(N)c2c(ccc3c2ccn3Cc2cccc([N+](=O)[O-])c2)n1
dose: 0.19 mg/kg/injection, schedule: Q01DX009 (ip), vehicle: saline with Tween-80
  T/C: 107 % of control
dose: 0.2 mg/kg/injection, schedule: Q01DX009 (ip), vehicle: saline with Tween-80
  T/C: 102 % of control
dose: 0.38 mg/kg/injection, schedule: Q01DX009 (ip), vehicle: saline with Tween-80
  T/C: 98 % of control
dose: 0.4 mg/kg/injection, schedule: Q01DX009 (ip), vehicle: saline with Tween-80
  T/C: 101 % of control
dose: 0.75 mg/kg/injection, schedule: Q01DX009 (ip), vehicle: saline with Tween-80
  T/C: 116 % of control
dose: 0.78 mg/kg/injection, schedule: Q01DX009 (ip), vehicle: saline with Tween-80
  T/C: 103 % of control
dose: 1.5 mg/kg/injection, schedule: Q01DX009 (ip), vehicle: saline with Tween-80
  T/C: 93 % of control and 100 % of control
[4]
  T/C: 99 % of control
dose: 3.0 mg/kg/injection, schedule: Q01DX009 (ip), vehicle: saline with Tween-80
  T/C: 112 % of control and 103 % of control
dose: 6.0 mg/kg/injection, schedule: Q01DX009 (ip), vehicle: saline with Tween-80
  T/C: 108 % of control and 116 % of control

## CC(C)(C)OC(=O)NC(Cc1cn(Cc2ccccc2)cn1)C(=O)O (stereo unspecified)
[6]
  T/C: 102 % of control
[7]
  T/C: 97 % of control
[8]
  T/C: 100 % of control

## CC(NC(=O)C(Cc1cnc[nH]1)NC(=O)OCc1ccccc1)C(=O)O (stereo unspecified)
[9]
  T/C: 98 % of control
[10]
  T/C: 104 % of control
[11]
  T/C: 98 % of control

## ClCc1ccc(Oc2ccc(CCl)cc2)cc1
dose: 3.12 mg/kg/injection, schedule: Q01DX009 (ip), vehicle: Klucel (hydroxypropylcellulose) (HPC)
  T/C: 101 % of control
dose: 6.25 mg/kg/injection, schedule: Q01DX009 (ip), vehicle: Klucel (hydroxypropylcellulose) (HPC)
  T/C: 98 % of control
[1]
  T/C: 107 % of control
[2]
  T/C: 112 % of control
[3]
  T/C: 93 % of control

## Nc1ccc(OCCCc2c(-c3ccccc3)nc(N)[nH]c2=O)cc1
[5]
  T/C: 121 % of control
[6]
  T/C: 102 % of control
[7]
  T/C: 118 % of control
[8]
  T/C: 96 % of control

## Nc1nc([Se]c2nc(N)nc3c2ncn3C2OC(CO)C(O)C2O)c2ncn(C3OC(CO)C(O)C3O)c2n1 (stereo unspecified)
dose: 25.0 mg/kg/injection, schedule: Q01DX009 (ip), vehicle: distilled water + Tween-80
  T/C: 108 % of control
dose: 50.0 mg/kg/injection, schedule: Q01DX009 (ip), vehicle: distilled water + Tween-80
  T/C: 112 % of control
dose: 100.0 mg/kg/injection, schedule: Q01DX009 (ip), vehicle: distilled water + Tween-80
  T/C: 89 % of control
dose: 200.0 mg/kg/injection, schedule: Q01DX009 (ip), vehicle: distilled water + Tween-80
  T/C: 87 % of control

## O=[N+]([O-])c1ccc(-n2[nH]nnc2=S)cc1
[12]
  T/C: 100 % of control and 101 % of control
[5]
  T/C: 101 % of control and 103 % of control
[6]
  T/C: 95 % of control
[7]
  T/C: 93 % of control and 100 % of control
[8]
  T/C: 88 % of control and 92 % of control

## O=C1NC(=O)C2C3C=CC(C12)C1C2C(=O)NC(=O)C2C31 (stereo unspecified)
[12]
  T/C: 108 % of control and 100 % of control
dose: 19.7 mg/kg/injection, schedule: Q01DX009 (ip), vehicle: water
  T/C: 107 % of control
[5]
  T/C: 114 % of control and 104 % of control
dose: 32.9 mg/kg/injection, schedule: Q01DX009 (ip), vehicle: water
  T/C: 98 % of control
[6]
  T/C: 117 % of control
dose: 54.8 mg/kg/injection, schedule: Q01DX009 (ip), vehicle: water
  T/C: 117 % of control
[7]
  T/C: 120 % of control and 124 % of control

## Nc1n[nH]c2ccccc12
dose: 25.0 mg/kg/injection, schedule: Q01DX009 (ip), vehicle: acid diluted with saline
  T/C: 101 % of control
dose: 50.0 mg/kg/injection, schedule: Q01DX009 (ip), vehicle: acid diluted with saline
  T/C: 102 % of control
dose: 100.0 mg/kg/injection, schedule: Q01DX009 (ip), vehicle: acid diluted with saline
  T/C: 95 % of control
dose: 200.0 mg/kg/injection, schedule: Q01DX009 (ip), vehicle: acid diluted with saline
  T/C: 88 % of control

## O=C1c2ccccc2CCC1(Br)Br
dose: 2.5 mg/kg/injection, schedule: Q01DX009 (ip), vehicle: Klucel (hydroxypropylcellulose) (HPC)
  T/C: 107 % of control
dose: 10.0 mg/kg/injection, schedule: Q01DX009 (ip), vehicle: Klucel (hydroxypropylcellulose) (HPC)
  T/C: 90 % of control

## c1cc(OCC2CO2)ccc1OCC1CO1 (stereo unspecified)
[1]
  T/C: 109 % of control
[2]
  T/C: 121 % of control and 103 % of control
[3]
  T/C: 105 % of control
[10]
  T/C: 117 % of control

## COc1cc(NS(C)(=O)=O)ccc1Nc1c2ccc(Cl)cc2nc2c(OC)cccc12
dose: 2.0 mg/kg/injection, schedule: Q01DX005 (ip), vehicle: water
  T/C: 165 % of control
dose: 2.0 mg/kg/injection, schedule: Q01DX005 (iv), vehicle: water
  T/C: 111 % of control
dose: 4.0 mg/kg/injection, schedule: Q01DX001 (iv), vehicle: water
  T/C: 101 % of control
dose: 4.0 mg/kg/injection, schedule: Q01DX005 (ip), vehicle: water
  T/C: 174 % of control
dose: 8.0 mg/kg/injection, schedule: Q01DX001 (iv), vehicle: water
  T/C: 102 % of control
dose: 8.0 mg/kg/injection, schedule: Q01DX005 (ip), vehicle: water
  T/C: 178 % of control
dose: 16.0 mg/kg/injection, schedule: Q01DX001 (iv), vehicle: water
  T/C: 100 % of control

## O=NNc1ccc(Cl)cn1
dose: 1.56 mg/kg/injection, schedule: Q01DX009 (ip), vehicle: water
  T/C: 118 % of control
dose: 3.13 mg/kg/injection, schedule: Q01DX009 (ip), vehicle: water
  T/C: 107 % of control
dose: 6.25 mg/kg/injection, schedule: Q01DX009 (ip), vehicle: water
  T/C: 115 % of control
dose: 12.5 mg/kg/injection, schedule: Q01DX009 (ip), vehicle: water
  T/C: 166 % of control and 168 % of control

## ClCCCCCCCCCCc1ccccc1
[1]
  T/C: 91 % of control
[2]
  T/C: 94 % of control
[3]
  T/C: 91 % of control
[9]
  T/C: 93 % of control
[10]
  T/C: 90 % of control
[11]
  T/C: 89 % of control

## C=C1COC(O)(C2OCOC(C3CC(=O)NC(=O)C3)C2O)C1C (stereo unspecified)
dose: 4.0 micrograms/kg/injection, schedule: Q01DX009 (ip), vehicle: water
  T/C: 94 % of control
dose: 8.0 micrograms/kg/injection, schedule: Q01DX009 (ip), vehicle: water
  T/C: 111 % of control and 113 % of control
dose: 16.0 micrograms/kg/injection, schedule: Q01DX009 (ip), vehicle: water
  T/C: 109 % of control
dose: 32.0 micrograms/kg/injection, schedule: Q01DX009 (ip), vehicle: water
  T/C: 115 % of control

## O=C(Nc1nncs1)c1ccncc1
[12]
  T/C: 108 % of control
[5]
  T/C: 102 % of control
[6]
  T/C: 92 % of control

## Clc1ccc2c(Cl)ncnc2c1
dose: 12.5 mg/kg/injection, schedule: Q01DX009 (ip), vehicle: saline
  T/C: 96 % of control
dose: 25.0 mg/kg/injection, schedule: Q01DX009 (ip), vehicle: saline
  T/C: 100 % of control
[6]
  T/C: 93 % of control
dose: 50.0 mg/kg/injection, schedule: Q01DX009 (ip), vehicle: saline
  T/C: 100 % of control

## O=C1c2ccccc2C(Cl)(c2ccc(Cl)cc2)c2ccc(Cl)cc21 (stereo unspecified)
[5]
  T/C: 114 % of control
dose: 36.0 mg/kg/injection, schedule: Q01DX009 (ip), vehicle: saline with Tween-80
  T/C: 109 % of control
[6]
  T/C: 116 % of control and 120 % of control
dose: 60.0 mg/kg/injection, schedule: Q01DX009 (ip), vehicle: saline with Tween-80
  T/C: 111 % of control
[7]
  T/C: 115 % of control and 107 % of control
dose: 166.67 mg/kg/injection, schedule: Q01DX009 (ip), vehicle: saline with Tween-80
  T/C: 122 % of control
[8]
  T/C: 117 % of control
dose: 277.78 mg/kg/injection, schedule: Q01DX009 (ip), vehicle: saline with Tween-80
  T/C: 103 % of control
